Experiments:
[1] = distribution coefficient P; format: physicochemical
[2] = test system: Gram positive and Gram negative bacteria; assay: dark toxicity of the stains for bacteria; format: cell-based; details: TB compared with MB, without irradiation
Protocol: The observed dark toxicity was higher for toluidine blue (TB) than for methylene blue (MB). This is consistent with the distribution coefficient P that was determined to be 0.33 for TB and 0.11 for MB.
While dark toxicity for Gram positive bacteria was nearly unrelated to type, the dark toxicity for Gram negative bacteria is quite clearly a function of type and specifically corresponds to the trans-membrane permeability coefficient of the exterior membrane of Gram negative bacteria.
Dark toxicity was a function of both the concentration and the incubation period prior to irradiation.

colon tumors = details: 20 μg/mL, intratumorally applied, without irradiation; cited from earlier work
Gram negative germs = assay: complete reduction of Gram negative germs; format: cell-based; details: compared with 25-44 μmol for Gram positive bacteria
Excerpt: (§1) Completely reducing Gram negative germs requires 3-30 times higher concentrations. P. aeruginosa was reduced […] by 3.5 log10 CFU at a concentration of 200˜mol and an energy density of 100 mW/cm^2.

P. aeruginosa = assay: photodynamic reduction of P. aeruginosa; format: cell-based; details: concentration of 200˜mol; energy density of 100 mW/cm^2
Excerpt: as §1

[3] = test system: all examined microorganisms; assay: in vitro reduction of microorganisms by methylene blue solutions in culture medium; format: cell-based; details: culture medium being used
Gram positive bacteria = assay: in vitro reduction of Gram positive bacteria by methylene blue solutions; format: cell-based
Excerpt: Methylene blue solutions reduce almost all Gram positive bacteria in a concentration of 25-44 μmol in vitro.

[4] = penetration depth of MB solutions into normal oral mucosa; details: after 10-min incubation time
Excerpt: The clinical application of PDT is possible since the stain solutions selectively color cell systems, while the interaction with the epithelium is very limited. […] Furthermore, the life expectancy of the active radicals and their precursors is microseconds, so that it is practically assured that there are no concomitant destructive effects in healthy tissue due to diffusion, since there is not enough time for this.

## Cc1cc2nc3ccc(N(C)C)cc3[s+]c2cc1N.[Cl-] [TB, toluidine blue]
[1]
  distribution coefficient P: 0.33
[2]
  observed dark toxicity: higher

## CN(C)c1ccc2nc3ccc(=[N+](C)C)cc-3sc2c1 [Methylene blue, phenothiazin-5-ium, 3,7-bis(dimethylamino)-chloride]
Colon tumors
  destruction of colon tumors by the substance alone: not destroyed
Gram negative germs
  concentration needed for completely reducing Gram negative germs, relative to Gram positive bacteria: 3-30 times higher
P. aeruginosa
  reduction of P. aeruginosa: 3.5 log10 CFU
[3]
  reduction of the number of microorganisms in the culture medium: able to reduce the number of all examined microorganisms
Gram positive bacteria
  concentration that reduces almost all Gram positive bacteria: 25 to 44 µmol
[4]
  penetration depth into the epithelium: 1-2 exterior layers of cells
